From PubChem BioAssay AID1549 (Sanford-Burnham Center for Chemical Genomics, 2009) come the findings set out here.

The source made the active and inactive calls. No rule for the calls is given here.

This assay addresses Influenza A virus M2 proton channel (A/TW/4845/1999 H1N1). Put plainly: M2 proton channel binding, NMR based, influenza A virus H1N1 strain (AID 1549). As to conditions: NMR binding screen, M2 protein.
As a reminder, the Kd is a measure of binding affinity in units of concentration. As for `COc1ccc(-c2cc(=O)c3c(O)c(OC)c(O[C@H]4O[C@H](CO[C@@H]5O[C@@H](C)[C@H](O)[C@@H](O)[C@H]5O)[C@@H](O)[C@H](O)[C@H]4O)cc3o2)cc1`, the Kd is > 4 mM (inactive).

In the case of `NC(=O)CSc1nc2ccccc2o1`, the Kd is > 4 mM (inactive).

On to `CC12OC(=O)CC3C(C)(C)[C@H](O)C=C[C@]3(C)C1CC[C@]1(C)C2=CC(=O)O[C@H]1c1ccoc1` (some centres not stated), for which the Kd is > 4 mM (inactive).

Consider `O=C(NCc1cccnc1)c1ccccn1`, for which the Kd was > 4 mM (inactive).

As to `O=C(c1ccco1)N1C(=O)c2cccc3cccc1c23`, the Kd is > 4 mM (inactive).

For the compound `COc1cc2c3cc1Oc1cc(ccc1O)C[C@@H]1c4c(cc(OC)c(O)c4Oc4ccc(cc4)C[C@@H]3N(C)CC2)CC[N+]1(C)C`, the Kd is > 4 mM (inactive).

For the compound `Cc1cn(C(=O)CN2C(=O)c3ccccc3C2=O)c(C)n1`, the Kd was > 4 mM (inactive).

`c1ccc(-c2noc(-c3cccnc3)n2)nc1`: the Kd was > 4 mM (inactive).

Consider `CC(C)=NNC(=O)C(=O)NC(C)(C)C`, for which the Kd is > 4 mM (inactive).

For `Fc1cccc(Cl)c1CN1CCCNCC1`, the Kd was > 4 mM (inactive).

As for `COc1cc(O)c2c(=O)c(O)c(-c3ccc(O)c(O)c3)oc2c1`, the Kd is > 4 mM (inactive).

With `CN1CCN(C(=O)c2cc(-c3ccccc3)on2)CC1`, the Kd is > 4 mM (inactive).

As to `COC(=O)[C@]1(C)CC[C@]2(C)CC[C@]3(C)C4=CCc5c(cc(O)c(O)c5C)[C@]4(C)CC[C@@]3(C)C2C1` (some centres not stated), the Kd is > 4 mM (inactive).

Regarding `CC(=O)Nc1ccc(C)cc1NC(C)=O`, the Kd was > 4 mM (inactive).

With `Cc1sc2nc(C)n(NC(N)=O)c(=O)c2c1C`, the Kd was > 4 mM (inactive).

`Cc1occc1C(=O)Nc1nnc(C(F)(F)F)s1`: the Kd is > 4 mM (inactive).

Regarding `Cc1nnc(SCC(=O)N2CCc3ccccc32)s1`, the Kd was > 4 mM (inactive).

As to `Nc1cc2ccccc2cn1`, the Kd is > 4 mM (inactive).

Take `COC(=O)N(c1ccccc1)P1(=S)OCCO1`: the Kd was > 4 mM (inactive).

As for `CN1C(=O)CC(=O)N(C)c2ccccc21`, the Kd is > 4 mM (inactive).

As for `c1csc(-c2nnc3ccccn23)c1`, the Kd was > 4 mM (inactive).

As for `Clc1ccccc1-c1nc(-c2cccnc2)no1`, the Kd is > 4 mM (inactive).

Take `COc1cc(/C=C/C(=O)/C=C(O)/C=C/c2ccc(O)c(OC)c2)ccc1O`: the Kd was > 4 mM (inactive).

On to `Cc1nn(C)c2sc(C(=O)O)cc12`, for which the Kd is > 4 mM (inactive).

Turning to `O=C(O)Cn1nnnc1-c1ccc(F)cc1`, the Kd was > 4 mM (inactive).

For the compound `Nc1nc(-c2ccncc2)cs1`, the Kd is > 4 mM (inactive).

Consider `Cc1nc(NCc2ccco2)nc2c1C(=O)CC(C)C2` (configuration not stated), for which the Kd is > 4 mM (inactive).

Consider `O/N=C1/CCCc2nonc21`, for which the Kd is > 4 mM (inactive).

As for `COCCn1cnc2cc(C)c(C)cc21`, the Kd is > 4 mM (inactive).

With `Nc1nnc(SCc2cccnc2)s1`, the Kd is > 4 mM (inactive).

Turning to `Cc1cc(NC(=O)Cc2c(F)cccc2Cl)no1`, the Kd was > 4 mM (inactive).

As for `COc1ccc(-c2cc(=O)c3c(O)cc(O[C@@H]4O[C@H](CO[C@H]5O[C@H](C)[C@@H](O)[C@H](O)[C@@H]5O)[C@@H](O)[C@H](O)[C@H]4O)cc3o2)cc1O`, the Kd is > 4 mM (inactive).

On to `Cc1cc(O)c(C=O)c(O)c1C(=O)O`, for which the Kd was > 4 mM (inactive).

With `CC(=O)OC1CCC2(C)C(=CC=C3C2CCC2(C)C3CCC2C(C)/C=C/C(C)C(C)C)C1(C)C` (configuration not stated), the Kd is > 4 mM (inactive).

For the compound `O=C(O)C1CC(=O)N(Cc2cccs2)C1` (configuration not stated), the Kd was > 4 mM (inactive).

As to `CC1=C2C(=CO[C@H](C)[C@H]2C)C(=O)C(C(=O)O)=C1O`, the Kd is > 4 mM (inactive).

In the case of `CC1=C/C(=C\c2c(O)[nH]c(=O)[nH]c2=O)C(C)=N1`, the Kd was > 4 mM (inactive).

`CNC(=O)CC1Sc2ccccc2NC1=O` (configuration not stated): the Kd was > 4 mM (inactive).

Take `O=C(C1CCCCC1)N1CCN(c2ccccc2F)CC1`: the Kd is > 4 mM (inactive).

Consider `COC(=O)Cn1c2ccccc2c2nc(C)sc21`, for which the Kd is > 4 mM (inactive).

Take `CC(=O)c1c(C)nc2ccccc2c1N`: the Kd is > 4 mM (inactive).

On to `Cc1cc2nc(SCC(=O)O)nc(C)c2cc1C`, for which the Kd was > 4 mM (inactive).

For `O=C(NC12CC3CC(CC(C3)C1)C2)c1cnccn1`, the Kd was > 4 mM (inactive).

Turning to `CN1CCC(NC(=O)c2cccnc2)CC1`, the Kd is > 4 mM (inactive).

On to `O=C(O)CS(=O)(=O)c1ccccc1`, for which the Kd is > 4 mM (inactive).

Take `COc1cccc(/C=N/N=C2/NC(=O)CS2)c1`: the Kd is > 4 mM (inactive).

Turning to `CNC(=S)Nc1ccc(OC)cc1C`, the Kd is > 4 mM (inactive).

For the compound `Cc1cc(C)n2nc(-c3cccnc3)nc2n1`, the Kd is > 4 mM (inactive).

`CCc1c(C)n([O-])c2c([n+]1=O)CCC2`: the Kd was > 4 mM (inactive).

Take `CC1(C)O[C@H]2CC(=O)OC[C@]23[C@H]2CC[C@@]4(C)[C@H](c5ccoc5)OC(=O)[C@H]5O[C@]54[C@]2(C)C(=O)C[C@@H]13`: the Kd was > 4 mM (inactive).

As for `CC(NC(=O)c1ccco1)c1ccc2c(c1)OCCO2` (configuration not stated), the Kd was > 4 mM (inactive).

On to `Cc1sc2nc(NCCO)[nH]c(=O)c2c1C`, for which the Kd was > 4 mM (inactive).

Consider `O=C(Nc1nnc(-c2ccncc2)o1)c1cccs1`, for which the Kd is > 4 mM (inactive).

Turning to `Cc1cc(=O)c2ccccc2n1CC(N)=O`, the Kd was > 4 mM (inactive).

Consider `COc1ccc(C(N)=O)cc1NC(C)=O`, for which the Kd was > 4 mM (inactive).

Take `O=C(O)CCC1=C2c3ccccc3CCN2C(=O)CC1`: the Kd is > 4 mM (inactive).

Turning to `Cc1nc2nc(-c3ccco3)nn2c(C)c1Cl`, the Kd is > 4 mM (inactive).

Regarding `O=C1NC(=O)C(c2ccccc2)C(=O)N1`, the Kd was > 4 mM (inactive).

Take `Fc1ccc(Br)cc1/C=N/n1cnnc1`: the Kd is > 4 mM (inactive).

Regarding `CCOC(=O)c1c(SC)nc(=O)[nH]c1C`, the Kd was > 4 mM (inactive).

Consider `O=C(O)CSCc1ccc(Cl)cc1`, for which the Kd is > 4 mM (inactive).

On to `O=C1C2C3C=CC(C3)C2C(=O)N1c1ccccn1` (configuration not stated), for which the Kd was > 4 mM (inactive).

As to `COc1ccc2c(c1)OC[C@@H](Cc1ccc(OC)c(OC)c1)[C@H]2O`, the Kd is > 4 mM (inactive).

In the case of `CC(=O)c1cc(C)ccc1OC(=O)c1cccnc1`, the Kd is > 4 mM (inactive).

Consider `COC(=O)c1ccc2nc[nH]c2c1`, for which the Kd is > 4 mM (inactive).

Regarding `COc1cc(/C=C/C(=O)O)ccc1O`, the Kd was > 4 mM (inactive).

For `NCC1COc2ccccc2O1` (configuration not stated), the Kd is > 4 mM (inactive).

Consider `OCc1ccccc1O[C@@H]1O[C@H](CO)[C@@H](O)[C@H](O)[C@H]1O`, for which the Kd was > 4 mM (inactive).

Regarding `OCC1CCCN2CCCCC12` (configuration not stated), the Kd is > 4 mM (inactive).

For the compound `Cn1ccc(NC(=S)Nc2cccc([N+](=O)[O-])c2)n1`, the Kd was > 4 mM (inactive).

As for `Cc1ccsc1/C=c1\sc2ncnn2c1=O`, the Kd is > 4 mM (inactive).

For `O=C(O)CCCC(=O)Nc1nccs1`, the Kd is > 4 mM (inactive).

As to `Cc1ccc(C(=O)Nc2c[nH]c(=O)[nH]c2=O)cc1`, the Kd was > 4 mM (inactive).

Take `CC1(C)CC[C@]2(C(=O)O)CC[C@]3(C)C(=CCC4[C@@]5(C)CC[C@@H](O)C(C)(C)C5CC[C@]43C)C2C1` (some centres not stated): the Kd is > 4 mM (inactive).

Consider `CS(=O)(=O)N1CCN(C(=O)c2ccccc2)C1`, for which the Kd is > 4 mM (inactive).

Consider `COC(=O)[C@]1(C)CC[C@]2(C)CC[C@]3(C)C4=CC=C5C(=CC(=O)C(O)=C5C)[C@]4(C)CC[C@@]3(C)[C@@H]2C1`, for which the Kd is > 4 mM (inactive).

On to `O=c1ccc2ccc(O)cc2o1`, for which the Kd was > 4 mM (inactive).

Regarding `O=C(O)CCCCC1SCC2NC(=O)NC21` (configuration not stated), the Kd was > 4 mM (inactive).

With `c1ccc(Cc2nn3c(-c4ccncc4)nnc3s2)cc1`, the Kd was > 4 mM (inactive).

For `Cc1ccccc1NC(=O)c1ocnc1C`, the Kd was > 4 mM (inactive).

As for `CNC(=O)COc1cccc2c1CCNC2=O`, the Kd is > 4 mM (inactive).

On to `CC1=C2C(O)C(=O)OC3CC4C(C)(C)C(=O)C=C[C@]4(C)C(CC1)[C@]23C` (some centres not stated), for which the Kd was > 4 mM (inactive).

In the case of `CC(C)(OC(=O)c1ccccc1)[C@@H]1Cc2cc3ccc(=O)oc3cc2O1`, the Kd was > 4 mM (inactive).

`COC(=O)c1ccc(NC(=O)CC2NCCNC2=O)cc1` (configuration not stated): the Kd was > 4 mM (inactive).

For `NC(=O)CSc1ccc2nnc(-c3cccs3)n2n1`, the Kd is > 4 mM (inactive).

In the case of `COC1(C)CCC2OC2(C)CCC2C1CC2(C)C` (configuration not stated), the Kd is > 4 mM (inactive).

In the case of `CN1C(=O)c2ccc(N=C3NC(=O)CS3)cc2C1=O`, the Kd was > 4 mM (inactive).

Regarding `Nc1[nH]c(=S)[nH]c(=O)c1-c1ccccc1`, the Kd is > 4 mM (inactive).

For the compound `O=c1ccc(=O)n(CN2CCc3ccccc3C2)[nH]1`, the Kd was > 4 mM (inactive).

As for `C/C=C(\C)C(=O)O[C@H]1C[C@@H](OC(C)=O)[C@@]2(C(=O)OC)CO[C@@H]3C2[C@]12CO[C@](O)(C(=O)OC)[C@H]2[C@](C)(C12O[C@@]1(C)[C@H]1C[C@@H]2OC2OC=C[C@@]21O)[C@@H]3O` (some centres not stated), the Kd is > 4 mM (inactive).

Turning to `NCC(=O)c1ccccc1`, the Kd was > 4 mM (inactive).

As to `CCOC(=O)c1c(C)[nH]c2ccc(O)cc12`, the Kd is > 4 mM (inactive).

Consider `CC(=O)Oc1ccccc1N1C(=O)C=CC1=O`, for which the Kd is > 4 mM (inactive).

Take `Cc1c(C(=O)OC(C)C)[nH]c2c1C(=O)CCC2`: the Kd was > 4 mM (inactive).

With `C=CC(C)(O)CC/C=C(\C)CCC=C(C)C` (configuration not stated), the Kd is > 4 mM (inactive).

In the case of `O=C1C2CC=CCC2C(=O)N1c1cccc(O)c1` (configuration not stated), the Kd is > 4 mM (inactive).

As to `O=C(CS(=O)(=O)c1ccccc1)N1CCCCCC1`, the Kd is > 4 mM (inactive).
